Experiments:
[1] = system: rats post-IVH (CSF hypersecretion); test: Rate of CSF production, post-hemorrhagic hydrocephalus model; assay type: in vivo, rat; conditions: ICV treatment for 48 hr
Protocol: All animal experiments were approved by the Institutional Animal Care and Use Committee (IACUC) of the Yale University, and in accordance with the guidelines and regulations in the NIH Guide for the Care and Use of Laboratory Animals. Male Wistar rats (Harlan, Indianapolis, Ind., USA), age 8 weeks (220-230 g), were anesthetized (60 mg/kg ketamine plus 7.5 mg/kg xylazine, IP) and allowed to breathe room air spontaneously. Body temperature was maintained at 37±1° C. (Harvard Apparatus, Holliston, Mass., USA) throughout the course of the experiments. PHH was modeled using a modified protocol based on previously described methods (Karimy et al. (2015) Nature medicine 23: 997-1003; Simard et al. (2011) Transl Stroke Res 2: 227-231). […]
Rates of CSF production were measured using the method we recently published (Karimy et al. (2015) Nature medicine 23: 997-1003). […] The volume (V) of CSF that forms at a given timepoint is calculated as: V (mm^3)=π·r^2·d, where r is the radius of the capillary tube and d is the distance CSF traveled within the capillary. The rate of CSF formation (μL/min) can be calculated from the slope of the volume-time relationship. A baseline rate of spontaneous CSF secretion (no drug infusion) was calculated over 30 minutes prior to drug infusion, then compared to the calculated rate of CSF formation following 30 minutes of ZT-1a infusion. […]

[2] = system: SPAK Ser373, NKCC1 Thr203/207/212 and KCCs phosphorylation; test: Phosphorylation immunoblot in HEK293 cells; assay type: cell-based, human
Protocol: HEK293 (human embryonic kidney 293) cells were cultured on 10-cm-diameter dishes in DMEM supplemented with 10% (v/v) foetal bovine serum, 2 mM L-glutamine, 100 U/ml penicillin and 0.1 mg/ml streptomycin. HEK293 cells were transfected with a mixture of 20 μl of 1 mg/ml polyethylenimine (Polysciences) and 5-10 μg of plasmid DNA as described previously (Durocher et al., 2002). 36 hours post-transfection cells were stimulated with either control isotonic or hypotonic medium for a period of 30 minutes. Cells were lysed in 0.3 mL of ice-cold lysis buffer/dish, lysates were clarified by centrifugation at 4° C. for 15 minutes at 26,000 g and the supernatant aliquots were frozen in liquid nitrogen and stored at −20° C. Protein concentrations were determined using the Bradford method. Cells were treated with the indicated concentrations of the SPAK/OSR1 inhibitors. […] Hypotonic low chloride buffer was 67.5 mM sodium-gluconate, 2.5 mM potassium-gluconate, 0.25 mM CaCl2), 0.25 mM MgCl2, 0.5 mM Na2HPO4, 0.5 mM Na2SO4 and 7.5 mM HEPES (pH 7.5).
The membranes were incubated for 30 min with TBST (Tris-buffered saline, 0.05% Tween-20) containing 5% (w/v) skim milk. […] After repeating the washing steps, signals were detected with enhanced chemiluminescence reagent. […] The densities of bands were measured with ImageJ. […]

Question: For `Cc1cc(C(C#N)c2ccc(Cl)cc2)c(Cl)cc1NC(=O)c1cc(Cl)ccc1O` (stereo not drawn) [ZT-1a, 5-chloro-N-(5-chloro-4-((4-chlorophenyl)(cyano)methyl)-2-methylphenyl)-2-hydroxy-benzamide], which “decrease of post-IVH CSF hypersecretion” value [1] is on record?
Answer: ~57±6.2%

Question: And the “concentration inhibiting phosphorylation of SPAK Ser373, NKCC1 Thr203/207/212 and KCCs” value [2]?
Answer: 3 µM

Question: What about the “effect on SPAK/OSR1 Ser373/Ser325 and NKCC1 Thr203/Thr207/Thr212 phosphorylation” value ([2]; dose-dependent (1-10), hypotonic low Cl- and isotonic conditions) of the same molecule?
Answer: markedly inhibited

— US11414379B2, “SPAK kinase inhibitors as neuroprotective agents” (United States Government as represented by the Department …, priority 2018, dated 2022)
